Reference: US9045442B2, “Antibacterial compounds and methods of using same” (University of Notre Dame du Lac, priority 2007, dated 2015)

Legend:
S. aureus VAN2 = experiment: minimum inhibitory concentration (MIC) against S. aureus VAN2; assay type: cell-based, Staphylococcus aureus
From the text: (§1) In embodiments, the antibacterials of this invention may have useful activity against a variety of organisms. The in vitro activity of compounds of this invention may be assessed by standard testing procedures such as the determination of minimum inhibitory concentration (MIC) by agar dilution.
(§2) Compound A was broken down into smaller structural components and each fraction tested to understand the impact of certain components on the antibacterial properties of the compounds. Based on the understanding of compound A, the compounds (compounds 1 and 2) shown below, were tested further. […] A minimum inhibitory concentration is the lowest concentration of an antimicrobial that will inhibit the visible growth of a microorganism after overnight incubation.
(§3) In accordance with embodiments of the present invention, a variety of compounds have been prepared and tested, as indicated, in part, by the description above. The tables below provide minimum inhibitory concentration data for the identified compounds tested against various bacterial strains.

S. aureus ATCC 29213 = experiment: minimum inhibitory concentration (MIC) against S. aureus ATCC 29213; assay type: cell-based, Staphylococcus aureus
From the text: as §1, §2, §3
(§4) Table 1 lists the active compounds and the activity of those compounds for a limited quantity of bacteria. Blank spaces indicate low or no activity.

E. faecalis 99 = experiment: minimum inhibitory concentration (MIC) against E. faecalis 99; assay type: cell-based
From the text: as §1, §2, §3, §4

[1] = system: several strains of Staphylococcus aureus; experiment: activity (minimum inhibitory concentration testing) against several strains of Staphylococcus aureus; assay type: cell-based; settings: FIG. 1, result in words
Description: as §2

E. faecium 106 = experiment: minimum inhibitory concentration (MIC) against E. faecium 106; assay type: cell-based
From the text: as §1, §2, §3

S. aureus NRS100 (COL) = experiment: minimum inhibitory concentration (MIC) against S. aureus NRS100 (COL); assay type: cell-based, Staphylococcus aureus
From the text: as §1, §2, §3

strains of Entercoccus = experiment: activity (minimum inhibitory concentration testing) against strains of Entercoccus; assay type: cell-based; settings: result in words; for activity as measured by minimum inhibitory concentration testing against several strains of Entercoccus: FIG. 1
Description: (§5) In an embodiment, an initial antibacterial compound was provided and tested. Such compound is identified below as compound A. Compound A (below) is an inhibitor of gram positive bacteria.
as §2

E. faecium 119-39A = experiment: minimum inhibitory concentration (MIC) against E. faecium 119-39A; assay type: cell-based
From the text: as §1, §2, §3

E. faecal 201 = experiment: minimum inhibitory concentration (MIC) against E. faecal 201; assay type: cell-based, E. faecalis
From the text: as §1, §2, §3, §4

S. aureus VAN1 = experiment: minimum inhibitory concentration (MIC) against S. aureus VAN1; assay type: cell-based, Staphylococcus aureus
From the text: as §1, §2, §3

E. faecalis 29212 = experiment: minimum inhibitory concentration (MIC) against E. faecalis 29212; assay type: cell-based; set-up: minimum inhibitory concentration, E. faecalis 29212: unit not given here
From the text: as §1, §2, §3, §4

gram positive bacteria = experiment: inhibition of gram positive bacteria; assay type: cell-based; settings: result in words
From the text: as §5

Structure (SMILES)	minimum inhibitory concentration, E. faecal 201 (E. faecal 201)	minimum inhibitory concentration, E. faecalis 29212 (E. faecalis 29212)	further results
Oc1ccc(-c2nc(-c3ccc(Oc4ccc(C(F)(F)F)cc4)cc3)no2)cc1 [Compound 1, 4-(3-(4-(4-(trifluoromethyl)phenoxy)phenyl)-1,2,4-oxadiazol-5-yl)phenol]	2	2	minimum inhibitory concentration, S. aureus VAN2 (S. aureus VAN2): 2; minimum inhibitory concentration, S. aureus ATCC 29213 (S. aureus ATCC 29213): 2; minimum inhibitory concentration, E. faecal 99 BH (E. faecalis 99): 8; minimum inhibitory concentration, E. faecalis 99 (E. faecalis 99): 2; activity as measured by minimum inhibitory concentration testing against several strains of Staphylococcus aureus [1]: good activity; minimum inhibitory concentration, E. faecium 106 (E. faecium 106): 2; minimum inhibitory concentration, E. faecium 106 BH (E. faecium 106; E. faecium 106 BH): 4; minimum inhibitory concentration, S. aureus NRS100 (COL) (S. aureus NRS100 (COL)): 2; activity as measured by minimum inhibitory concentration testing against several strains of Entercoccus (strains of Entercoccus): good activity; minimum inhibitory concentration, E. faecium 119-39A (E. faecium 119-39A): 2; minimum inhibitory concentration, E. faecium 119-39A BH (E. faecium 119-39A; E. faecium 119-39A BH): 8; minimum inhibitory concentration, E. faecal 201 BH (E. faecal 201): 16; minimum inhibitory concentration, S. aureus VAN1 (S. aureus VAN1): 2; minimum inhibitory concentration, E. faecalis 29212 BH (E. faecalis 29212): 16
Oc1ccc(-c2nc(-c3ccc(Oc4ccccc4)cc3)no2)cc1 [Compound 2, 4-(3-(4-phenoxyphenyl)-1,2,4-oxadiazol-5-yl)phenol]	4	4	minimum inhibitory concentration, S. aureus VAN2 (S. aureus VAN2): 2; minimum inhibitory concentration, S. aureus ATCC 29213 (S. aureus ATCC 29213): 2; minimum inhibitory concentration, E. faecalis 99 (E. faecalis 99): 4; activity as measured by minimum inhibitory concentration testing against several strains of Staphylococcus aureus [1]: good activity; minimum inhibitory concentration, E. faecium 106 (E. faecium 106): 4; minimum inhibitory concentration, S. aureus NRS100 (COL) (S. aureus NRS100 (COL)): 2; activity as measured by minimum inhibitory concentration testing against several strains of Entercoccus (strains of Entercoccus): good activity; minimum inhibitory concentration, E. faecium 119-39A (E. faecium 119-39A): 4; minimum inhibitory concentration, S. aureus VAN1 (S. aureus VAN1): 2
CC(=O)O/N=C(\N)c1ccc(Oc2ccc(C(F)(F)F)cc2)cc1 [Compound 7]	128	32	minimum inhibitory concentration, E. faecal 99 BH (E. faecalis 99): 512
N/C(=N\OC(=O)c1ccc([N+](=O)[O-])cc1)c1ccc(Oc2ccc(C(F)(F)F)cc2)cc1 [Compound 14, (Z)-4-(4-(trifluoromethyl)phenoxy)-O-(4-nitrobenzoyl)benzamidoxime]	32	128	–
O=[N+]([O-])c1ccc(-c2nc(-c3ccc(Oc4ccc(C(F)(F)F)cc4)cc3)no2)cc1 [Compound 15]	128	8	–
Fc1ccc(-c2nc(-c3ccccc3)no2)cc1 [Compound 19, 5-(4-fluorophenyl)-3-phenyl-1,2,4-oxadiazole]	128	64	–
COc1ccc(/C(N)=N/OC(=O)c2ccc(F)cc2)cc1 [Compound 25, 4-fluorobenzoyl-O-4-methoxybenzamidoxime]	256	256	–
COc1ccc(-c2noc(-c3ccc(F)cc3)n2)cc1 [Compound 26, 5-(4-fluorophenyl)-3-(4-methoxyphenyl)-1,2,4-oxadiazole]	128	64	–
COc1ccc(-c2noc(-c3ccc(OCc4ccccc4)cc3)n2)cc1 [Compound 27, 5-(4-(benzyloxy)phenyl)-3-(4-methoxyphenyl)-1,2,4-oxadiazole]	256	–	–
COc1ccc(-c2noc(-c3ccc(O)cc3)n2)cc1 [Compound 28, 4-(3-(4-methoxyphenyl)-1,2,4-oxadiazol-5-yl)phenol]	64	–	minimum inhibitory concentration, S. aureus ATCC 29213 (S. aureus ATCC 29213): 32
N/C(=N\OC(=O)c1ccc(F)cc1)c1ccc(Oc2ccccc2)cc1 [Compound 29, (Z)-4-(phenoxy)-O-(4-fluorobenzoyl)benzamidoxime]	128	64	–
Oc1ccc(Oc2ccc(-c3noc(-c4ccc(F)cc4)n3)cc2)cc1 [Compound 36, 4-(4-(5-(4-fluorophenyl)-1,2,4-oxadiazol-3-yl)phenoxy)phenol]	32	64	–
O=P(O)(O)Oc1ccc(Oc2ccc(-c3noc(-c4ccc(F)cc4)n3)cc2)cc1 [Compound 37, 4-(4-(5-(4-fluorophenyl)-1,2,4-oxadiazol-3-yl)phenoxy)phenyl dihydrogen phosphate]	32	500	minimum inhibitory concentration, E. faecal 99 BH (E. faecalis 99): 500; minimum inhibitory concentration, E. faecal 201 BH (E. faecal 201): 500; minimum inhibitory concentration, E. faecalis 29212 BH (E. faecalis 29212): 128
c1ccc(COc2ccc(-c3nc(-c4ccc(Oc5cnccn5)cc4)no3)cc2)cc1 [Compound 40, 2-(4-(5-(4-(benzyloxy)phenyl)-1,2,4-oxadiazol-3-yl)phenoxy)pyrazine]	64	–	–
c1ccc(COc2ccc(-c3nc(-c4ccc(Oc5ccccn5)cc4)no3)cc2)cc1 [Compound 43, 2-(4-(5-(4-(benzyloxy)phenyl)-1,2,4-oxadiazol-3-yl)phenoxy)pyridine]	64	–	–
Oc1ccc(-c2nc(-c3ccc(Oc4ccccn4)cc3)no2)cc1 [Compound 44, 4-(3-(4-(pyridin-2-yloxy)phenyl)-1,2,4-oxadiazol-5-yl)phenol]	32	–	–
c1ccc(COc2ccc(-c3nc(-c4ccc(Oc5cccnc5)cc4)no3)cc2)cc1 [Compound 47, 3-(4-(5-(4-(benzyloxy)phenyl)-1,2,4-oxadiazol-3-yl)phenoxy)pyridine]	32	–	–
Oc1ccc(-c2nc(-c3ccc(Oc4cccnc4)cc3)no2)cc1 [Compound 48, 4-(3-(4-(pyridin-3-yloxy)phenyl)-1,2,4-oxadiazol-5-yl)phenol]	32	–	–
c1ccc(COc2ccc(-c3nc(-c4ccc(Oc5ccncc5)cc4)no3)cc2)cc1 [Compound 51, 4-(4-(5-(4-(benzyloxy)phenyl)-1,2,4-oxadiazol-3-yl)phenoxy)pyridine]	64	–	–
Oc1ccc(-c2nc(-c3ccc(Oc4ccncc4)cc3)no2)cc1 [Compound 52, 4-(3-(4-(pyridin-4-yloxy)phenyl)-1,2,4-oxadiazol-5-yl)phenol]	32	–	–
Fc1ccc(-c2nc(-c3ccc(Oc4ccc(C(F)(F)F)cc4)cc3)no2)cc1 [Compound A, 5-(4-fluorophenyl)-3-(4-(4-(trifluoromethyl)phenoxy)phenyl)-1,2,4-oxadiazole]	128	125	inhibition of gram positive bacteria (gram positive bacteria): inhibitor; activity against some strains of Entercoccus (strains of Entercoccus; some strains of Entercoccus): shows activity
